Measurements as given in patent US12552772B2, “2-pyrazole anilines and related analogs for inhibiting YAP/TAZ-TEAD” (KATHOLIEKE UNIVERSITEIT LEUVEN, priority 2021, dated 2026).

Each compound was assayed on YAP/TAZ-TEAD transcription (assay: Reporter gene assay for measuring the inhibition of YAP/TAZ-TEAD transcription (TEAD-responsive element luciferase reporter in Hek293T cells)). Details: Homo sapiens, HEK-293T, 24 hours incubation.
Type: cell-based
Method: Hek293T cells are cultured in DMEM supplemented with 10% fetal bovine serum, Sodium pyruvate, Sodium bicarbonate, L-glutamine. The cells are harvested and transiently transfected with TEAD-responsive element luciferase reporter. Transfected cells are plated in 384-wells plate containing pre-diluted compounds. After 24 hours incubation at 37° C./5% CO2, assay plates were cooled down to RT and levelled to an equal volume per well, prior to the addition of 25 uL luciferase substrate SteadyLite (Perkin Elmer)/well. The plate was shaken for 10 min at 600 rpm, centrifuged for 1 min at 500 rpm and measured with an Envision reader (PerkinElmer). The amount of relative light units produced by the TEAD reporter is used to calculated percent of inhibition.
The percent of reporter inhibition was calculated in the presence of a positive control inhibitor (100% inhibition) versus a condition with the presence of the vehicle basal activity of the reporter (0% inhibition). The ability of a test compound to inhibit this activity was determined as: Percentage inhibition=[1−((RLU determined in the presence of vehicle−RLU determined for sample with test compound present) divided by (RLU determined in the presence of vehicle−RLU determined for sample with positive control inhibitor))]*100
The activities of the example compounds tested are depicted in the table below. The activity ranges A, B and C refer to EC50 values in the reporter gene assay as described as follows: “A”: EC50<1 μM; “B”: 1 μM s EC50≤20 μM and “C”: EC50>20 μM, NT=not tested.

| EC50 | SMILES |
| --- | --- |
| 1000 to 20000 nM | O=C1CC(Nc2cc(-c3ccccc3)cc(-c3ccn(Cc4cccnc4)n3)c2)CCN1 (centres unmarked) [compound 073, 4-((5-(1-(pyridin-3-ylmethyl)-1H-pyrazol-3-yl)-[1,1′-biphenyl]-3-yl)amino)piperidin-2-one] |
| 1000 to 20000 nM | CNC(=O)CNc1ccc(-c2ccccc2)cc1-c1ccn(Cc2cccnc2)n1 [compound 074, N-methyl-2-((3-(1-(pyridin-3-ylmethyl)-1H-pyrazol-3-yl)-[1,1′-biphenyl]-4-yl)amino)acetamide] |
| 1000 to 20000 nM | CNC(=O)CNc1cc(-c2ccccc2)cc(-c2ccn(Cc3cccnc3)n2)c1 [compound 076, N-methyl-2-((5-(1-(pyridin-3-ylmethyl)-1H-pyrazol-3-yl)-[1,1′-biphenyl]-3-yl)amino)acetamide] |
| < 1000 nM | CCC(=O)NCCNc1ccc(-c2ccccc2)cc1-c1ccn(Cc2cccnc2)n1 [compound 077] |
| > 20000 nM | O=C(O)CNc1cc(-c2ccccc2)cc(-c2ccn(Cc3cccnc3)n2)c1 [compound 078, (5-(1-(pyridin-3-ylmethyl)-1H-pyrazol-3-yl)-[1,1′-biphenyl]-3-yl)glycine] |
| 1000 to 20000 nM | CNS(=O)(=O)CCC(=O)Nc1ccc(-c2ccccc2)cc1-c1ccn(Cc2cccnc2)n1 [compound 079, 3-(N-methylsulfamoyl)-N-(3-(1-(pyridin-3-ylmethyl)-1H-pyrazol-3-yl)-[1,1′-biphenyl]-4-yl)propanamide] |
| 1000 to 20000 nM | C=CC(=O)Nc1ccc(-c2ccccc2)cc1-c1ccn(Cc2cccnc2)n1 [compound 080, N-(3-(1-(pyridin-3-ylmethyl)-1H-pyrazol-3-yl)-[1,1′-biphenyl]-4-yl)acrylamide] |
| 1000 to 20000 nM | N#CCC(=O)Nc1ccc(-c2ccccc2)cc1-c1ccn(Cc2cccnc2)n1 [compound 081, 2-cyano-N-(3-(1-(pyridin-3-ylmethyl)-1H-pyrazol-3-yl)-[1,1′-biphenyl]-4-yl)acetamide] |
| 1000 to 20000 nM | CNS(=O)(=O)CC(=O)Nc1ccc(-c2ccccc2)cc1-c1ccn(Cc2cccnc2)n1 [compound 082, 2-(N-methylsulfamoyl)-N-(3-(1-(pyridin-3-ylmethyl)-1H-pyrazol-3-yl)-[1,1′-biphenyl]-4-yl)acetamide] |
| 1000 to 20000 nM | N#CCCNc1ccc(-c2ccccc2)cc1-c1ccn(Cc2cccnc2)n1 [compound 084, 3-((3-(1-(pyridin-3-ylmethyl)-1H-pyrazol-3-yl)-[1,1′-biphenyl]-4-yl)amino)propanenitrile] |
| < 1000 nM | N#CCNc1ccc(-c2ccccc2)cc1-c1ccn(Cc2cccnc2)n1 [compound 085, 2-((3-(1-(pyridin-3-ylmethyl)-1H-pyrazol-3-yl)-[1,1′-biphenyl]-4-yl)amino)acetonitrile] |
| < 1000 nM | CNS(=O)(=O)CCNc1ccc(-c2cccc(C(F)(F)F)c2)cc1-c1ccn(Cc2cccnc2)n1 [compound 089] |
| < 1000 nM | CNS(=O)(=O)CCNc1ccc(-c2cccc(OC)c2)cc1-c1ccn(Cc2cccnc2)n1 [compound 090, 2-((3′-methoxy-3-(1-(pyridin-3-ylmethyl)-1H-pyrazol-3-yl)-[1,1′-biphenyl]-4-yl)amino)-N-methylethane-1-sulfonamide] |
| < 1000 nM | CNS(=O)(=O)CCNc1ccc(-c2cccc(Cl)c2)cc1-c1ccn(Cc2cccnc2)n1 [compound 091, 2-((3′-chloro-3-(1-(pyridin-3-ylmethyl)-1H-pyrazol-3-yl)-[1,1′-biphenyl]-4-yl)amino)-N-methylethane-1-sulfonamide] |
| < 1000 nM | CNS(=O)(=O)CCNc1ccc(-c2cc(F)ccc2F)cc1-c1ccn(Cc2cccnc2)n1 [compound 092, 2-((2′,5′-difluoro-3-(1-(pyridin-3-ylmethyl)-1H-pyrazol-3-yl)-[1,1′-biphenyl]-4-yl)amino)-N-methylethane-1-sulfonamide] |
| 1000 to 20000 nM | CNS(=O)(=O)CCNc1ccc(-c2cccnc2)cc1-c1ccn(Cc2cccnc2)n1 [compound 094, N-methyl-2-((4-(pyridin-3-yl)-2-(1-(pyridin-3-ylmethyl)-1H-pyrazol-3-yl)phenyl)amino)ethane-1-sulfonamide] |

| EC50 | SMILES |
| --- | --- |
| < 1000 nM | CNS(=O)(=O)CCNc1ccc(C2CCCCC2)cc1-c1ccn(Cc2cccnc2)n1 [compound 095, 2-((4-cyclohexyl-2-(1-(pyridin-3-ylmethyl)-1H-pyrazol-3-yl)phenyl)amino)-N-methylethane-1-sulfonamide] |
| 1000 to 20000 nM | CNS(=O)(=O)CCNc1ccc(-c2ccn(C)n2)cc1-c1ccn(Cc2cccnc2)n1 [compound 096, N-methyl-2-((4-(1-methyl-1H-pyrazol-3-yl)-2-(1-(pyridin-3-ylmethyl)-1H-pyrazol-3-yl)phenyl)amino)ethane-1-sulfonamide] |
| < 1000 nM | CNS(=O)(=O)CCNc1ccc(-c2ccc(C(F)F)cc2)cc1-c1ccn(Cc2cccnc2)n1 [compound 097, 2-((4′-(difluoromethyl)-3-(1-(pyridin-3-ylmethyl)-1H-pyrazol-3-yl)-[1,1′-biphenyl]-4-yl)amino)-N-methylethane-1-sulfonamide] |
| < 1000 nM | CNS(=O)(=O)CCNc1ccc(-c2ccc(OC(F)(F)F)cc2)cc1-c1ccn(Cc2cccnc2)n1 [compound 098, N-methyl-2-((3-(1-(pyridin-3-ylmethyl)-1H-pyrazol-3-yl)-4′-(trifluoromethoxy)-[1,1′-biphenyl]-4-yl)amino)ethane-1-sulfonamide] |
| < 1000 nM | CNS(=O)(=O)CCNc1ccc(-c2ccc(OC(F)F)cc2)cc1-c1ccn(Cc2cccnc2)n1 [compound 099, 2-((4′-(difluoromethoxy)-3-(1-(pyridin-3-ylmethyl)-1H-pyrazol-3-yl)-[1,1′-biphenyl]-4-yl)amino)-N-methylethane-1-sulfonamide] |
| < 1000 nM | CNS(=O)(=O)CCNc1ccc(-c2ccc(S(F)(F)(F)(F)F)cc2)cc1-c1ccn(Cc2cccnc2)n1 [compound 100, 2-((4′-(2,2-difluoro-2-methyl-2l6-trifluoran-2-yl)-3-(1-(pyridin-3-ylmethyl)-1H-pyrazol-3-yl)-[1,1′-biphenyl]-4-yl)amino)-N-methylethane-1-sulfonamide] |
| < 1000 nM | CNS(=O)(=O)CCNc1ccc(-c2cc(F)cc(F)c2)cc1-c1ccn(Cc2cccnc2)n1 [compound 101, 2-((3′,5′-difluoro-3-(1-(pyridin-3-ylmethyl)-1H-pyrazol-3-yl)-[1,1′-biphenyl]-4-yl)amino)-N-methylethane-1-sulfonamide] |
| < 1000 nM | CNS(=O)(=O)CCNc1ccc(-c2ccc(C(F)(F)F)cc2)cc1-c1ccn(Cc2cccc(F)c2)n1 [compound 103, 2-((3-(1-(3-fluorobenzyl)-1H-pyrazol-3-yl)-4′-(trifluoromethyl)-[1,1′-biphenyl]-4-yl)amino)-N-methylethane-1-sulfonamide] |
| < 1000 nM | CNS(=O)(=O)CCNc1ccc(-c2ccccc2)cc1-c1ccn(Cc2cccc(C#N)c2)n1 [compound 104, 2-((3-(1-(3-cyanobenzyl)-1H-pyrazol-3-yl)-[1,1′-biphenyl]-4-yl)amino)-N-methylethane-1-sulfonamide] |
| < 1000 nM | CNS(=O)(=O)CCNc1ccc(-c2ccc(C(F)(F)F)cc2)cc1-c1ccn(CCOC)n1 [compound 105, 2-((3-(1-(2-methoxyethyl)-1H-pyrazol-3-yl)-4′-(trifluoromethyl)-[1,1′-biphenyl]-4-yl)amino)-N-methylethane-1-sulfonamide] |
| < 1000 nM | CNS(=O)(=O)CCNc1ccc(-c2ccc(Cl)cc2)cc1-c1ccn(Cc2cccnc2)n1 [compound 106, 2-((4′-chloro-3-(1-(pyridin-3-ylmethyl)-1H-pyrazol-3-yl)-[1,1′-biphenyl]-4-yl)amino)-N-methylethane-1-sulfonamide] |
| > 20000 nM | O=S(=O)(O)CCNc1ccc(-c2ccc(Cl)cc2)cc1-c1ccn(Cc2cccnc2)n1 [compound 107, 2-((4′-chloro-3-(1-(pyridin-3-ylmethyl)-1H-pyrazol-3-yl)-[1,1′-biphenyl]-4-yl)amino)ethane-1-sulfonic acid] |
| 1000 to 20000 nM | CNS(=O)(=O)CCNc1ccc(-c2cnn(C)c2)cc1-c1ccn(Cc2cccnc2)n1 [compound 108, N-methyl-2-((4-(1-methyl-1H-pyrazol-4-yl)-2-(1-(pyridin-3-ylmethyl)-1H-pyrazol-3-yl)phenyl)amino)ethane-1-sulfonamide] |
| > 20000 nM | Cn1ccc(-c2ccc(NCCS(=O)(=O)O)c(-c3ccn(Cc4cccnc4)n3)c2)n1 [compound 109, 2-((4-(1-methyl-1H-pyrazol-3-yl)-2-(1-(pyridin-3-ylmethyl)-1H-pyrazol-3-yl)phenyl)amino)ethane-1-sulfonic acid] |
| < 1000 nM | CNS(=O)(=O)CCNc1ccc(-c2ccc(OC)cc2)cc1-c1ccn(Cc2cccnc2)n1 [compound 111, 2-((4′-methoxy-3-(1-(pyridin-3-ylmethyl)-1H-pyrazol-3-yl)-[1,1′-biphenyl]-4-yl)amino)-N-methylethane-1-sulfonamide] |

| SMILES | EC50 |
| --- | --- |
| COc1ccc(-c2ccc(NCCS(=O)(=O)F)c(-c3ccn(Cc4cccnc4)n3)c2)cc1 [compound 110, 2-((4′-methoxy-3-(1-(pyridin-3-ylmethyl)-1H-pyrazol-3-yl)-[1,1′-biphenyl]-4-yl)amino)ethane-1-sulfonyl fluoride] | 1000 to 20000 nM |
